# Patent US7585895B2, “Therapeutic substituted cyclopentanes” (Allergan, Inc., priority 2005, dated 2009)
# Assays:
# EP4 receptors = biological target: T1, EP4 receptors (Homo sapiens, UniProt P35408); experiment: Radioligand binding, [3H]PGE2, EP4 (Ki); settings: HEK-293 cells stably expressing EP4, [3H]PGE2
# T1 construct: expressed in transfected cells; membrane pellet
# In short: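 Membranes from HEK-293 cells stably expressing human EP4 were incubated 60 min at 25 °C with 5 nM [3H]PGE2 and competitor in TME buffer pH 7.4, then filtered over GF/B. Non-specific binding defined with 10^−5 M unlabeled PGE2; duplicate points, at least three experiments.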
# hDP/Gqs5 = biological target: T2, hDP/Gqs5 (Homo sapiens, UniProt Q13258); experiment: FLIPR calcium signal, DP; format: cell-based; settings: HEK-293(EBNA)
# T2 construct: expressed in transfected cells
# T2 sequence (Q13258 1-359): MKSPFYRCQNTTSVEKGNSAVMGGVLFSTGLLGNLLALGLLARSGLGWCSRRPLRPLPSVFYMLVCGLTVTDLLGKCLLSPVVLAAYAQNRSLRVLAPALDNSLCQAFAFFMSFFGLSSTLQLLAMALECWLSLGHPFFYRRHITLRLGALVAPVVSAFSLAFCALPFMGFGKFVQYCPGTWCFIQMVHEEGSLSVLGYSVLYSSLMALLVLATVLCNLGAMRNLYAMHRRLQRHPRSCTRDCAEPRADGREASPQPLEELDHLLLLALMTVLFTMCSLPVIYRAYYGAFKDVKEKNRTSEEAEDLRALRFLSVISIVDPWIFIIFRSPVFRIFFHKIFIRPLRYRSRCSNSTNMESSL
# In short: (§1)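 Stably transfected HEK-293(EBNA) cells loaded with 2 μM Fluo-4 AM in HBSS-HEPES pH 7.4, 37° C; peak fluorescence rise after compound addition (FLIPR, 488 nm excitation) expressed relative to buffer and standard agonist controls (PGE2 for EP subtypes, U-46619 for TP). Tested 10^−5 to 10^−11 M, duplicates, n≧3.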
# EP2 = EP2 (Homo sapiens, UniProt P43116); experiment: Competition binding, [3H]PGE2, EP2 (Ki); design: expressed in transfected cells; membranes or whole cells; settings: HEK 293 cells stably expressing human EP2, [3H]PGE2
# EP2, sequence (P43116 whole entry): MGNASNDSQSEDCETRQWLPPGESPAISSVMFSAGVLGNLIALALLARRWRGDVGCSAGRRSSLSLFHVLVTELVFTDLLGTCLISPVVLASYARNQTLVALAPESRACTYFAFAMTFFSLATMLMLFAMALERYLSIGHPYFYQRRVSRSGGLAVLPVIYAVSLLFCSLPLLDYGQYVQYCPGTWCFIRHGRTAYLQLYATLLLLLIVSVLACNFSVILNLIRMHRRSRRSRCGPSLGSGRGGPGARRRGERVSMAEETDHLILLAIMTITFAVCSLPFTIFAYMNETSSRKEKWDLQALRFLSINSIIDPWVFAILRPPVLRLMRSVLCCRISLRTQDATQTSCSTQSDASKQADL
# In short: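 Membranes (~60 μg protein) or 2×10^5 HEK 293 cells stably expressing human EP2, in HBSS/20 mM Hepes pH 7.3 with [3H]PGE2 (10 nM), 60 min at 23° C, then filtration. Non-specific binding with 10 μM unlabeled PGE2; single-site fit IC50 converted to Ki using KD 40 nM.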
# hEP2/Gqs5 = biological target: T3, hEP2/Gqs5 (Homo sapiens, UniProt P43116); experiment: FLIPR calcium signal, EP2; format: cell-based; settings: HEK-293(EBNA), value outside parentheses, read-out: Ca2+ Signal-EC50 (nM) EP2
# T3 construct: expressed in transfected cells
# T3 sequence (P43116 whole entry): as above
# In short: as §1
# T1 sequence (P35408 whole entry): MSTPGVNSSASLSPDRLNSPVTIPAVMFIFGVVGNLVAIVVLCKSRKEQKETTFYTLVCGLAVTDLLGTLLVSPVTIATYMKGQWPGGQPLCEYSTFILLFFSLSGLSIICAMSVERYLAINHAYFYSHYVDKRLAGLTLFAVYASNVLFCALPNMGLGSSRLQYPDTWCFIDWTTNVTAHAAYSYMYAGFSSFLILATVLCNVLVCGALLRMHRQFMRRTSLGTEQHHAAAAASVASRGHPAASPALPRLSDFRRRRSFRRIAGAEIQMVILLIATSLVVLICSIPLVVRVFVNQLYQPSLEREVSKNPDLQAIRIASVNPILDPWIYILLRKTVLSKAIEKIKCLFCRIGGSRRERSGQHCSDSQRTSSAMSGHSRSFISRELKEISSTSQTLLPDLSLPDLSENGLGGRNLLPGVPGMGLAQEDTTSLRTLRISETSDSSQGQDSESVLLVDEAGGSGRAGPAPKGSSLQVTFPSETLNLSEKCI
smiles,measurement,setting,value
"CCCCCCc1ccc([C@@H]2[C@@H](C/C=C\CCCC(=O)O)[C@H](Cl)C[C@H]2O)cc1 [Entry 33, (Z)-7-[(1R,2S,3R,5R)-5-Chloro-2-(4-hexyl-phenyl)-3-hydroxy-cyclopentyl]-hept-5-enoic acid]",Ki,EP4 receptors,> 10000 nM
same,Ca2+ Signal-EC50 (nM) DP,hDP/Gqs5,not active
same,Ki,EP2,83 nM
same,EC50,hEP2/Gqs5,26 nM
